# Results: patent US7820675B2, “Benzofuran compounds” (Biovitrum AB, priority 2003, dated 2010)
# Where a name gives a salt, the structure may show the parent alone.
# Target: T1, human 5-HT6 receptor (Homo sapiens, UniProt P50406)
# T1 construct: expressed in transfected cells; host or cells: HEK293
# Assay: 5-HT6 binding assay ([3H]-LSD competition, SPA, membranes of transfected HEK293 cells)
# Details: competitive binding, [3H]-LSD radioligand, Ki calculated from IC50 (Cheng)
# T1 sequence (P50406 whole entry): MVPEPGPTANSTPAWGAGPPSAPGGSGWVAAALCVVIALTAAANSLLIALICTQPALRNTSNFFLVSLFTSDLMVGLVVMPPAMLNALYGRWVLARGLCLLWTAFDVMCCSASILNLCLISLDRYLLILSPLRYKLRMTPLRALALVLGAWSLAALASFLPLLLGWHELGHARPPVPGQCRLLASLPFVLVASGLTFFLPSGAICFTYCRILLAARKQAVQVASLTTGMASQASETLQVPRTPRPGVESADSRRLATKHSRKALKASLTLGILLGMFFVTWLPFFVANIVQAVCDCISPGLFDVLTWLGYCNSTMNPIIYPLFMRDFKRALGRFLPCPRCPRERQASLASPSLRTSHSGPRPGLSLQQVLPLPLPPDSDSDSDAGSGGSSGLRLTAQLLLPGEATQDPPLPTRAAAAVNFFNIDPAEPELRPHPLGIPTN
row,Compound,Ki [nM]
1,"O=S(=O)(Nc1cccc2cc(C3=CN4CCC3CC4)oc12)c1ccccc1 [Example 36, N-[2-(1-Azabicyclo[2.2.2]oct-2-en-3-yl)-1-benzofuran-7-yl]benzenesulfonamide hydrochloride]",20
2,"COc1ccc(C)cc1S(=O)(=O)Nc1cc(CN2CCNCC2)c2occc2c1 [Example 54, 2-Methoxy-5-methyl-N-[7-(piperazin-1-ylmethyl)-1-benzofuran-5-yl]benzenesulfonamide hydrochloride]",17.4
3,"CCN1CCC[C@@H]1CNc1cc(NS(=O)(=O)c2ccccc2C(F)(F)F)cc2ccoc12 [Example 67, N-[7-({[(2R)-1-Ethylpyrrolidin-2-yl]methyl}amino)-1-benzofuran-5-yl]-2-(trifluoromethyl)benzenesulfonamide hydrochloride]",13

# Next, values leading:
row,Ki [nM],Compound
1,7.5,"COc1ccc(C)cc1S(=O)(=O)Nc1cc(O[C@H]2CCNC[C@H]2F)c2occc2c1 (relative stereo) [Example 84, N-(7-{[cis-3-Fluoropiperidin-4-yl]oxy}-1-benzofuran-5-yl)-2-methoxy-5-methylbenzenesulfonamide hydrochloride]"
2,7,"COc1ccc(C)cc1S(=O)(=O)Nc1cc(O[C@@H]2CCNC[C@H]2F)c2occc2c1 (relative stereo) [Example 85, N-(7-{[trans-3-Fluoropiperidin-4-yl]oxy}-1-benzofuran-5-yl)-2-methoxy-5-methylbenzenesulfonamide hydrochloride]"
3,7,"O=S(=O)(Nc1cc(O[C@H]2CCNC[C@H]2F)c2occc2c1)c1ccccc1C(F)(F)F (relative stereo) [Example 86, N-(7-{[cis-3-Fluoropiperidin-4-yl]oxy}-1-benzofuran-5-yl)-2-(trifluoromethyl)benzenesulfonamide hydrochloride]"
4,5.3,"O=S(=O)(Nc1cc(O[C@@H]2CCNC[C@H]2F)c2occc2c1)c1ccccc1C(F)(F)F (relative stereo) [Example 87, N-(7-{[trans-3-Fluoropiperidin-4-yl]oxy}-1-benzofuran-5-yl)-2-(trifluoromethyl)benzenesulfonamide hydrochloride]"
5,14,"Cc1cccc(S(=O)(=O)Nc2cc(O[C@@H]3CCNC[C@H]3F)c3occc3c2)c1 (relative stereo) [Example 89, N-(7-{[trans-3-Fluoropiperidin-4-yl]oxy}-1-benzofuran-5-yl)-3-methylbenzenesulfonamide hydrochloride]"
6,56,"O=S(=O)(Nc1cc(O[C@@H]2CCNC[C@H]2F)c2occc2c1)c1cc(F)ccc1Cl (relative stereo) [Example 91, 2-Chloro-5-fluoro-N-(7-{[trans-3-fluoropiperidin-4-yl]oxy}-1-benzofuran-5-yl)benzenesulfonamide hydrochloride]"
7,5.56,"COc1ccc(C)cc1NS(=O)(=O)c1cc(CN2CCNC(C)C2)c2occc2c1 (stereo not shown) [Example 92, N-(2-Methoxy-5-methylphenyl)-7-[(3-methylpiperazin-1-yl)methyl]-1-benzofuran-5-sulfonamide hydrochloride]"

# Same assay, conditions: over three experiments
row,Hill coefficient,Compound
1,0.94 (SD 0.09),"NCCc1c[nH]c2ccc(O)cc12 [Example 5-HT, 5-hydroxytryptamine, reference compound]"

# Target: T1, human 5-HT6 receptor
# Assay: 5-HT6 intrinsic activity assay (inhibition of 5-HT induced increase in cAMP)
# Assay type: cell-based
# Details: read-out: fKi
# Procedure: Briefly, HEK293/5-HT6 cells were seeded in polylysine coated 96-well plates at a density of 25,000/well and grown in DMEM (Dulbecco's Modified Eagle Medium) (without phenol-red) containing 5% dialyzed Foetal Bovine Serum for 48 h at 37° C. in a 5% CO2 incubator. The medium was then aspirated and replaced by 0.1 mL assay medium (Hanks Balance Salt Solution containing 20 mM HEPES, 1.5 mM isobutylmethylxanthine and 1 mg/mL bovine serum albumin). After addition of test substances, 50 μl dissolved in assay medium, the cells were incubated for 10 min at 37° C. in a 5% CO2 incubator. The medium was again aspirated and the cAMP content was determined using a radioactive cAMP kit (Amersham Pharmacia Biotech, BIOTRAK RPA559).
# Table 4. Functional in vitro data at the h-5-HT receptor (fKi). Data are expressed as fKi,=IC50/(1+[5HT]/EC50).
row,Ki [nM],Compound
1,87,"CNCCCN(C)c1cc(NS(=O)(=O)c2ccccc2)cc2ccoc12 [Example 1, N-(7-{Methyl[3-(methylamino)propyl]amino}-1-benzofuran-5-yl)benzenesulfonamide hydrochloride]"
2,87,"Fc1ccc(CNc2cc(N3CCNCC3)c3occc3c2)cc1F [Example 12, N-(3,4-Difluorobenzyl)-7-piperazin-1-yl-1-benzofuran-5-amine hydrochloride]"
3,66,"COc1ccc(C)cc1S(=O)(=O)Nc1cc(-c2ccncc2)c2occc2c1 [Example 28, 2-Methoxy-5-methyl-N-(7-pyridin-4-yl-1-benzofuran-5-yl)benzenesulfonamide]"
4,54,"O=S(=O)(Nc1cc(-c2cncnc2)c2occc2c1)c1ccccc1 [Example 32, N-(7-Pyrimidin-5-yl-1-benzofuran-5-yl)benzenesulfonamide hydrochloride]"
5,20,"COc1ccc(C)cc1S(=O)(=O)Nc1cc(C2=CN3CCC2CC3)c2occc2c1 [Example 33, N-[7-(1-Aza-bicyclo[2.2.2]oct-2-en-3-yl)-benzofuran-5-yl]-2-methoxy-5-methylbenzenesulfonamide hydrochloride]"
